Assay results: EPA's CvTdb concentration-time database
Several values for one entry are separate records, joined by “and”; a condition that tells them apart may be missing. Equal entries are not always repeated.

Legend:
rat [1] = experiment: concentration in blood after dosing; negative times count back from the end of exposure; details: inhalation
Rat [2] = experiment: concentration in plasma after dosing
Rat [3] = experiment: concentration in liver after dosing; details: dosed: Perfluorooctane Sulfonate, oral
Rat [4] = experiment: concentration in kidney after dosing; details: dosed: Perfluorooctane Sulfonate, oral
Rat [5] = experiment: concentration in brain after dosing; details: dosed: Perfluorooctane Sulfonate, oral

ClC=C(Cl)Cl [trichloroethylene]
rat [1], dosed: trichloroethylene, duration: 4 hr
Details	concentration in blood [ng/mL]
-3.5 h, 600 ppm, female, F344, during exposure	16800
-3.459 h, 600.4 ppm, female, F344, during exposure	16200
-0.4732 h, 600.4 ppm, female, F344, during exposure	29000
0.203 h, 50 ppm, male, Sprague Dawley	936
0.2286 h, 50 ppm, male, Sprague Dawley	807
0.2287 h, 50 ppm, male, Sprague Dawley	1080
0.2341 h, 50 ppm, male, Sprague Dawley	1130
0.2372 h, 600 ppm, female, F344	21800
0.2627 h, 600.4 ppm, female, F344	18800
0.4545 h, 50 ppm, male, Sprague Dawley	1170
0.477 h, 50 ppm, male, Sprague Dawley	624
0.4781 h, 50 ppm, male, Sprague Dawley	461
0.4921 h, 50 ppm, male, Sprague Dawley	758
0.4935 h, 600 ppm, female, F344	16100
0.5358 h, 600.4 ppm, female, F344	13400
0.9773 h, 600 ppm, female, F344	4980
0.9775 h, 50 ppm, male, Sprague Dawley	548
0.9966 h, 50 ppm, male, Sprague Dawley	412
1.025 h, 600.4 ppm, female, F344	8560
1.027 h, 50 ppm, male, Sprague Dawley	319
1.739 h, 600 ppm, female, F344	2970
1.944 h, 50 ppm, male, Sprague Dawley	181
1.987 h, 50 ppm, male, Sprague Dawley	389
2.009 h, 50 ppm, male, Sprague Dawley	301
2.054 h, 600.4 ppm, female, F344	3600
4.006 h, 50 ppm, male, Sprague Dawley	217
4.049 h, 50 ppm, male, Sprague Dawley	207
250 s, 600 ppm, female, F344	24700

rat [1], dosed: trichloroethylene, 50 ppm, duration: 4 hr, male, Sprague Dawley, during exposure
Details	concentration in blood [ng/mL]
-313 s	1440
-72 s	1050
-67 s	1720
-14 s	2070
-3.578 h	917
-3.528 h	611
-3.504 h	680
-3.419 h	998
-3.27 h	824
-3.051 h	1330
-3.011 h	745
-3.008 h	1370
-2.984 h	1290
-2.064 h	1650
-2.027 h	1110
-2.007 h	1380
-1.985 h	1950
-1.07 h	1850
-1.031 h	1920
-1.023 h	1010
-1.012 h	1700

CCC(C)(C)O [tertiary amyl alcohol]
rat [1], dosed: tert-amyl methyl ether, duration: 6 hr, male, F344 (Charles River)
Details	concentration in blood [ng/mL]
0.1349 h, 100 ppm	3120
0.1606 h, 500 ppm	18700
0.161 h, 100 ppm	2610
0.1742 h, 500 ppm	28700
0.1776 h, 100 ppm	4090
0.1793 h, 100 ppm	3740
0.2114 h, 500 ppm	25900
0.3273 h, 2500 ppm	96000
0.3463 h, 2500 ppm	119000
0.3468 h, 100 ppm	3320
0.3507 h, 100 ppm	2500
0.3521 h, 500 ppm	18700
0.3559 h, 2500 ppm	101000
0.358 h, 500 ppm	33000
0.3593 h, 500 ppm	32300
0.3685 h, 100 ppm	3740
0.369 h, 100 ppm	3620
0.3717 h, 500 ppm	25500
0.8785 h, 2500 ppm	113000
0.8797 h, 2500 ppm	110000
0.8894 h, 2500 ppm	91700
0.8908 h, 2500 ppm	89100
0.9009 h, 100 ppm	1190
0.9009 h, 500 ppm	15400
0.9138 h, 500 ppm	25900
0.9151 h, 500 ppm	25100
0.9198 h, 100 ppm	2180
0.9217 h, 500 ppm	21500
0.9218 h, 100 ppm	1760
1.789 h, 2500 ppm	96800
1.799 h, 2500 ppm	76700
1.823 h, 100 ppm	1290
1.824 h, 2500 ppm	89300
2.017 h, 500 ppm	16200
2.018 h, 500 ppm	15400
2.026 h, 500 ppm	11400
3.851 h, 500 ppm	8400
3.852 h, 500 ppm	7720
3.858 h, 500 ppm	4810
3.985 h, 2500 ppm	61200
3.989 h, 2500 ppm	52300
3.99 h, 2500 ppm	49700
3.991 h, 2500 ppm	48600
9.831 h, 2500 ppm	3190
9.837 h, 500 ppm	123
17.91 h, 500 ppm	185
36 s, 100 ppm	4500

rat [1], dosed: tert-amyl methyl ether, duration: 6 hr, male, F344 (Charles River), during exposure
Details	concentration in blood
-112 s, 100 ppm	3220 ng/mL
-97 s, 100 ppm	2350 ng/mL
-51 s, 500 ppm	27000 ng/mL
-36 s, 100 ppm	3730 ng/mL
-27 s, 500 ppm	23300 ng/mL
-5.969 h, 2500 ppm	2030 ng/mL
-5.968 h, 2500 ppm	298 ng/mL
-5.931 h, 100 ppm	373 ng/mL
-5.788 h, 100 ppm	269 ng/mL
-5.779 h, 500 ppm	1540 ng/mL
-5.777 h, 500 ppm	432 ng/mL
-5.722 h, 2500 ppm	4830 ng/mL
-5.695 h, 100 ppm	530 ng/mL
-5.662 h, 2500 ppm	10000 ng/mL
-5.661 h, 2500 ppm	6980 ng/mL
-5.626 h, 100 ppm	895 ng/mL
-5.601 h, 100 ppm	790 ng/mL
-5.589 h, 500 ppm	2720 ng/mL
-5.079 h, 2500 ppm	24900 ng/mL
-5.077 h, 2500 ppm	21200 ng/mL
-5.075 h, 2500 ppm	17100 ng/mL
-5.019 h, 500 ppm	5250 ng/mL
-5.017 h, 500 ppm	4200 ng/mL
-5.015 h, 100 ppm	1710 ng/mL
-5.013 h, 100 ppm	1350 ng/mL
-5.012 h, 100 ppm	1200 ng/mL
-5.011 h, 100 ppm	882 ng/mL
-4.072 h, 100 ppm	2490 ng/mL
-4.07 h, 100 ppm	2010 ng/mL
-4.069 h, 100 ppm	1890 ng/mL and 1860 ng/mL
-3.994 h, 2500 ppm	30900 ng/mL
-3.993 h, 2500 ppm	29600 ng/mL
-3.992 h, 2500 ppm	28500 ng/mL
-3.908 h, 500 ppm	8890 ng/mL
-3.906 h, 500 ppm	7410 ng/mL
-2.076 h, 500 ppm	19600 ng/mL
-2.075 h, 500 ppm	19000 ng/mL
-2.065 h, 100 ppm	3210 ng/mL
-2.062 h, 100 ppm	2590 ng/mL
-2.061 h, 100 ppm	2340 ng/mL
-2.046 h, 100 ppm	4250 ng/mL
-2.018 h, 2500 ppm	59800 ng/mL
-2.017 h, 2500 ppm	58900 ng/mL
-2 h, 2500 ppm	84600 ng/mL
-1.996 h, 2500 ppm	78100 ng/mL
-0.2032 h, 2500 ppm	99500 ng/mL
-0.1979 h, 2500 ppm	89100 ng/mL
-0.1701 h, 2500 ppm	95600 ng/mL
-0.031 h, 500 ppm	18700 ng/mL

O=S(=O)([O-])C(F)(F)C(F)(F)C(F)(F)C(F)(F)C(F)(F)C(F)(F)C(F)(F)C(F)(F)F [Perfluorooctane Sulfonate]
concentration in plasma [ng/mL], Rat [2], dosed: Perfluorooctane Sulfonate, 2 mg/kg
Details	Female	Male
1 h, iv, F344	4190	–
1 h, iv, Harlan Sprague-Dawley	4680	–
1 h, oral, Harlan Sprague Dawley	2210	–
5 min, iv, F344	4540	–
5 min, iv, Harlan Sprague-Dawley	4940	–
5 min, oral, Harlan Sprague Dawley	45.8	–
6 h, iv, F344	4360	4280
6 h, oral, Harlan Sprague Dawley	3970	–
12 h, iv, F344	4300	3680
12 h, oral, Harlan Sprague Dawley	7550	–
24 h, iv, F344	4320	3470
24 h, iv, Harlan Sprague-Dawley	3660	–
24 h, oral, Harlan Sprague Dawley	4650	–
192 h, iv, F344	4590	–
192 h, iv, Harlan Sprague-Dawley	2490	–
192 h, oral, Harlan Sprague Dawley	3130	–
528 h, iv, F344	3280	1770
528 h, iv, Harlan Sprague-Dawley	2170	–
528 h, oral, Harlan Sprague Dawley	2690	–
864 h, iv, F344	1540	1300
864 h, oral, Harlan Sprague Dawley	1610	–
1200 h, iv, F344	2010	1650
1200 h, iv, Harlan Sprague-Dawley	650	–
1200 h, oral, Harlan Sprague Dawley	1100	–
1704 h, iv, F344	1840	573
1704 h, iv, Harlan Sprague-Dawley	868	–
1848 h, oral, Harlan Sprague Dawley	780	–
2376 h, iv, F344	750	395
2376 h, iv, Harlan Sprague-Dawley	698	–
2520 h, oral, Harlan Sprague Dawley	388	–
3216 h, iv, F344	90.3	–
3360 h, oral, Harlan Sprague Dawley	237	–

Details	concentration in brain, Rat [5] [ng/g]	concentration in kidney, Rat [4] [ng/g]	concentration in liver, Rat [3] [ng/g]
6 h, 2 mg/kg, Female, Harlan Sprague Dawley	–	4960	24800
6 h, 20 mg/kg, Female, F344	3650	112000	118000
6 h, 20 mg/kg, Male, Harlan Sprague Dawley	5430	85500	135000
24 h, 2 mg/kg, Female, Harlan Sprague Dawley	615	5860	24400
24 h, 20 mg/kg, Female, F344	11500	131000	127000
24 h, 20 mg/kg, Male, Harlan Sprague Dawley	9570	66800	148000
864 h, 2 mg/kg, Female, Harlan Sprague Dawley	–	1750	13200
864 h, 20 mg/kg, Female, F344	3420	53400	72900
864 h, 20 mg/kg, Male, Harlan Sprague Dawley	2750	21500	93900
1848 h, 2 mg/kg, Female, Harlan Sprague Dawley	–	923	5150
1848 h, 20 mg/kg, Female, F344	1270	21400	44900
1848 h, 20 mg/kg, Male, Harlan Sprague Dawley	1560	10500	51000
3360 h, 2 mg/kg, Female, Harlan Sprague Dawley	–	517	8200
3360 h, 20 mg/kg, Male, Harlan Sprague Dawley	672	2460	22900

Cc1ccc(C)c(OCCCC(C)(C)C(=O)O)c1 [Gemfibrozil]
concentration in plasma [ng/mL], Rat [2], dosed: Gemfibrozil, oral, Male, Sprague-Dawley
Details	4.29 mg/kg	50 mg/kg	100 mg/kg
0.25 h	250	17900	67400
0.5 h	314	15700	34600
1 h	147	5640	26200
2 h	307	3310	8500
4 h	566	8040	6870
5 min	395	1580	13300
6 h	401	9040	19600
10 h	286	4860	–
10 min	2260	7420	40200
15 h	137	1870	–
18 h	108	975	2190
24 h	128	920	1800
